Several values for one entry are separate records, joined by “and”; a condition that tells them apart may be missing. Equal entries are not always repeated. Toxic doses and inconclusive results are not listed. Rule for the calls: active = survival T/C of 150% or more; inactive = T/C below 125% in these data.
Tested on: CD2F1 mice, L1210 leukemia ip, survival T/C
Assay: NCI In Vivo Anticancer Drug Screen. Data for tumor model L1210 Leukemia (intraperitoneal) in CD2F1 (CDF1) mice
Conditions: higher = longer survival
Method in brief: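 Read-out first: treated-group measurement over vehicle-control measurement, expressed as a ratio. Animals bore a transplanted tumor line and were dosed with compound or vehicle.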

[1] = endpoint: mean survival time, dose: 100.0 mg/kg/injection, schedule: Q04DX003 (ip), vehicle: saline with Tween-80
[2] = endpoint: mean survival time, dose: 200.0 mg/kg/injection, schedule: Q04DX003 (ip), vehicle: saline with Tween-80
[3] = endpoint: mean survival time, dose: 400.0 mg/kg/injection, schedule: Q04DX003 (ip), vehicle: saline with Tween-80
[4] = endpoint: mean survival time, dose: 100.0 mg/kg/injection, schedule: Q01DX009 (ip), vehicle: saline with Tween-80
[5] = endpoint: mean survival time, dose: 200.0 mg/kg/injection, schedule: Q01DX009 (ip), vehicle: saline with Tween-80
[6] = endpoint: mean survival time, dose: 50.0 mg/kg/injection, schedule: Q01DX009 (ip), vehicle: saline with Tween-80

Measured: T/C

CCCCc1ccc(N/C(N)=N/c2nc(C)cc(=O)[nH]2)cc1
inactive: [1] 98 % of control | [2] 98 % of control | [3] 92 % of control

Cn1cc(NC(=O)c2cc(NC(=O)c3cc(NC=O)cn3C)cn2C)cc1C(=O)NCCC(=N)N
inactive: endpoint: mean survival time, dose: 100.0 mg/kg/injection, schedule: Q04DX003 (ip), vehicle: alcohol 108 % of control | endpoint: mean survival time, dose: 200.0 mg/kg/injection, schedule: Q04DX003 (ip), vehicle: alcohol 102 % of control | endpoint: median survival time, dose: 12.5 mg/kg/injection, schedule: Q01DX009 (ip), vehicle: water 104 % of control | endpoint: median survival time, dose: 25.0 mg/kg/injection, schedule: Q01DX009 (ip), vehicle: water 100 % of control | endpoint: median survival time, dose: 50.0 mg/kg/injection, schedule: Q01DX009 (ip), vehicle: water 103 % of control | endpoint: median survival time, dose: 100.0 mg/kg/injection, schedule: Q01DX009 (ip), vehicle: water 108 % of control

CCOC(=O)C(Cc1ccccc1Cl)(NC(C)=O)C(=O)OCC
inactive: [1] 100 % of control | [2] 102 % of control | [3] 91 % of control

Cc1sc2ccccc2c2nc3ccccc3c1-2
inactive: [4] 106 % of control | [5] 104 % of control | endpoint: mean survival time, dose: 400.0 mg/kg/injection, schedule: Q01DX009 (ip), vehicle: saline with Tween-80 107 % of control

O=C(O)Cc1ccc(Cl)cc1
inactive: endpoint: mean survival time, dose: 75.0 mg/kg/injection, schedule: Q01DX009 (ip), vehicle: saline with Tween-80 96 % of control | endpoint: mean survival time, dose: 150.0 mg/kg/injection, schedule: Q01DX009 (ip), vehicle: saline with Tween-80 102 % of control | endpoint: mean survival time, dose: 300.0 mg/kg/injection, schedule: Q01DX009 (ip), vehicle: saline with Tween-80 88 % of control

CC(=O)NNC(=O)c1ccc2ccccc2n1
inactive: [6] 96 % of control | endpoint: mean survival time, dose: 50.0 mg/kg/injection, schedule: Q04DX003 (ip), vehicle: saline with Tween-80 107 % of control | [4] 104 % of control | [1] 103 % of control | [5] 111 % of control | [2] 101 % of control

CCC(C)(C)c1ccc(O)cc1
inactive: [1] 104 % of control | [2] 98 % of control

c1cc2c3c(c1)-c1nc4ccccc4cc1CN3CCC2
inactive: [1] 98 % of control | [2] 101 % of control | [3] 97 % of control

[Cl][Pt+2][Cl].[NH-]c1ccc(C(=O)c2ccccc2)cc1[NH-]
inactive: endpoint: mean survival time, dose: 2.5 mg/kg/injection, schedule: Q01DX009 (ip), vehicle: saline with Tween-80 105 % of control | endpoint: mean survival time, dose: 5.0 mg/kg/injection, schedule: Q01DX009 (ip), vehicle: saline with Tween-80 105 % of control | endpoint: mean survival time, dose: 10.0 mg/kg/injection, schedule: Q01DX009 (ip), vehicle: saline with Tween-80 106 % of control | endpoint: mean survival time, dose: 20.0 mg/kg/injection, schedule: Q01DX009 (ip), vehicle: saline with Tween-80 100 % of control and 106 % of control | endpoint: mean survival time, dose: 40.0 mg/kg/injection, schedule: Q01DX009 (ip), vehicle: saline with Tween-80 102 % of control and 105 % of control | endpoint: mean survival time, dose: 80.0 mg/kg/injection, schedule: Q01DX009 (ip), vehicle: saline with Tween-80 101 % of control | endpoint: mean survival time, dose: 160.0 mg/kg/injection, schedule: Q01DX009 (ip), vehicle: saline with Tween-80 100 % of control | endpoint: mean survival time, dose: 320.0 mg/kg/injection, schedule: Q01DX009 (ip), vehicle: saline with Tween-80 100 % of control

COP1(=S)OCC2OC(n3cc(C)c(=O)[nH]c3=O)CC2O1 (centres undefined)
inactive: endpoint: mean survival time, dose: 12.5 mg/kg/injection, schedule: Q01DX005 (ip), vehicle: distilled water + Tween-80 101 % of control | endpoint: mean survival time, dose: 25.0 mg/kg/injection, schedule: Q01DX005 (ip), vehicle: distilled water + Tween-80 102 % of control | endpoint: mean survival time, dose: 50.0 mg/kg/injection, schedule: Q01DX005 (ip), vehicle: distilled water + Tween-80 102 % of control | endpoint: mean survival time, dose: 100.0 mg/kg/injection, schedule: Q01DX005 (ip), vehicle: distilled water + Tween-80 102 % of control | endpoint: mean survival time, dose: 200.0 mg/kg/injection, schedule: Q01DX005 (ip), vehicle: distilled water + Tween-80 98 % of control

CC/C=C/CCOC(=N)C(Cl)(Cl)Cl
inactive: [6] 92 % of control | [4] 92 % of control | [5] 101 % of control

CCOC(=O)C1=C(NC(=O)Nc2cccc(C(F)(F)F)c2)SC2CCCCC12 (centres undefined)
inactive: [6] 94 % of control | [4] 91 % of control | [5] 87 % of control

C[N+]12CC3C(O)CC1CCC32 (centres undefined)
inactive: endpoint: mean survival time, dose: 12.0 mg/kg/injection, schedule: Q01DX001 (ip), vehicle: saline 97 % of control | endpoint: mean survival time, dose: 12.0 mg/kg/injection, schedule: Q01DX009 (ip), vehicle: saline 96 % of control | endpoint: mean survival time, dose: 25.0 mg/kg/injection, schedule: Q01DX001 (ip), vehicle: saline 96 % of control | endpoint: mean survival time, dose: 25.0 mg/kg/injection, schedule: Q01DX009 (ip), vehicle: saline 98 % of control | endpoint: mean survival time, dose: 50.0 mg/kg/injection, schedule: Q01DX001 (ip), vehicle: saline 97 % of control | endpoint: mean survival time, dose: 50.0 mg/kg/injection, schedule: Q01DX009 (ip), vehicle: saline 93 % of control

Source: PubChem BioAssay AID256 (DTP/NCI, 2004)
